Measurements taken from patent US7276502B2, “Thiazoles useful as inhibitors of protein kinases” (Vertex Pharmaceuticals Incorporated, priority 2003, dated 2007).
Where two headings read alike, the source gives them in different places.

What was measured:
ZAP-70 = biological target: T1, ZAP-70 (Homo sapiens, UniProt P43403); assay: ZAP-70 inhibition assay (standard coupled enzyme assay); type: biochemical; conditions: 100 μM ATP, 20 μM poly-4EY peptide, 30° C., 60 nM ZAP-70
T1 sequence (P43403 1-619): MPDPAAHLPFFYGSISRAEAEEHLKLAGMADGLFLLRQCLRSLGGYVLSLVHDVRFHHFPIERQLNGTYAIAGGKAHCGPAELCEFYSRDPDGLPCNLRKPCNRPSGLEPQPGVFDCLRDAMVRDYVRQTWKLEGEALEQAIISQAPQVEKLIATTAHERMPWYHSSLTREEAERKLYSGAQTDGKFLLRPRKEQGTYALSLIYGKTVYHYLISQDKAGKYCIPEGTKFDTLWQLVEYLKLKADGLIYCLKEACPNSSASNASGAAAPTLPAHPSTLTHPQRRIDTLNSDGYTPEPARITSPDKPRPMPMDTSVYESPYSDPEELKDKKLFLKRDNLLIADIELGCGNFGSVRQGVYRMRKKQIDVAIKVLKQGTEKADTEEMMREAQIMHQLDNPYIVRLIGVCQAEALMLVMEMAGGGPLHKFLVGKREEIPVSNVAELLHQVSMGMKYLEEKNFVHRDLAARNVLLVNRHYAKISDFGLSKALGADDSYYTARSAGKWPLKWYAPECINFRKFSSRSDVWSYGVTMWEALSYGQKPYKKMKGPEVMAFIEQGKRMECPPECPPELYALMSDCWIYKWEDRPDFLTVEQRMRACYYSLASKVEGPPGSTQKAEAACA
Method: Compounds were screened for their ability to inhibit ZAP-70 using a standard coupled enzyme assay (Fox et al., Protein Sci. 1998, 7, 2249). Assays were carried out in a mixture of 100 mM HEPES (pH 7.5), 10 mM MgCl2, 25 mM NaCl, 2 mM DTT and 3% DMSO. Final substrate concentrations in the assay were 100 μM ATP (Sigma Chemicals) and 20 μM peptide (poly-4EY, Sigma Chemicals). Assays were carried out at 30° C. and 60 nM ZAP-70. Final concentrations of the components of the coupled enzyme system were 2.5 mM phosphoenolpyruvate, 300 μM NADH, 30 μg/ml pyruvate kinase and 10 μg/ml lactate dehydrogenase.
An assay stock buffer solution was prepared containing all of the reagents listed above, with the exception of ZAP-70 and the test compound of interest of the present invention. 55 μl of the stock solution was placed in a 96 well plate followed by addition of 2 μl of DMSO stock containing serial dilutions of the test compound of the present invention (typically starting from a final concentration of 15 μM). The plate was preincubated for 10 minutes at 30° C. and the reaction initiated by addition of 10 μl of enzyme (final concentration 60 nM). Initial reaction rates were determined with a Molecular Devices SpectraMax Plus plate reader over a 15 minute time course. Ki data was calculated from non-linear regression analysis using the Prism software package (GraphPad Prism version 3.0a for Macintosh, GraphPad Software, San Diego Calif., USA).

SYK = SYK (Homo sapiens, UniProt P43405); assay: SYK inhibition assay (standard coupled enzyme assay); type: biochemical
Method: Reactions were carried out in 100 mM HEPES (pH 7.5), 10 mM MgCl2, 25 mM NaCl, 1 mM DTT and 1.5% DMSO. Final substrate concentrations in the assay were 200 μM ATP (Sigma chemical Co.) and 4 μM poly Gly-Tyr peptide (Sigma Chemical Co.). Assays were carried out at 30° C. and 200 nM SYK. Final concentrations of the components of the coupled enzyme system were 2.5 mM phosphoenolpyruvate, 300 μM NADH, 30 μg/ml pyruvate kinase and 10 μg/ml lactate dehydrogenase.
An assay stock buffer solution was prepared containing all of the reagents listed above, with the exception of SYK, DTT, and the test compound of interest of the present invention. 56 μl of the test reaction was placed in a 96 well plate followed by the addition of 1 μl of 2 mM DMSO stock containing the test compound of the present invnetion (final compound concentration 30 μM).

[1] = coupled enzyme assay, 200 μM ATP, 4 μM poly Gly-Tyr peptide, 30° C., read-out: Ki (SYK)

| SMILES | Ki (ZAP-70) | Ki (SYK; [1]) | Ki (SYK) |
| --- | --- | --- | --- |
| Cc1cnc(-c2ccnc(Nc3ccc4[nH]c(C(F)(F)F)nc4c3)n2)s1 [Example I-1] | ≤ 5 µM | ≤ 5 µM |  |
| COc1ccc(Nc2nccc(-c3ncc(C)s3)n2)cc1OC [Example I-2] | ≤ 5 µM | ≤ 5 µM |  |
| Cc1cnc(-c2ccnc(Nc3ccc4c(c3)OCCCO4)n2)s1 [Example I-4] | ≤ 5 µM | ≤ 5 µM |  |
| COc1ccc(Nc2nccc(-c3ncc(C)s3)n2)cc1F [Example I-5] | ≤ 5 µM | ≤ 5 µM |  |
| Cc1cnc(-c2ccnc(Nc3cccc(S(=O)(=O)c4cccc(N)c4)c3)n2)s1 [Example I-6] | ≤ 5 µM | ≤ 5 µM |  |
| Cc1cnc(-c2ccnc(Nc3ccc(N4CCN(Cc5ccccc5)CC4)cc3)n2)s1 [Example I-7] | ≤ 5 µM | ≤ 5 µM |  |
| Cc1cnc(-c2ccnc(Nc3ccc(C)c(Br)c3)n2)s1 [Example I-8] | ≤ 5 µM | ≤ 5 µM |  |
| Cc1cnc(-c2ccnc(Nc3ccc4cn[nH]c4c3)n2)s1 [Example I-9] | ≤ 5 µM | ≤ 5 µM |  |
| CCN(CC)Cc1cc(Nc2nccc(-c3ncc(C)s3)n2)ccc1O [Example I-10] | ≤ 5 µM | ≤ 5 µM |  |
| Cc1cnc(-c2ccnc(Nc3ccc(Nc4ccccc4)cc3)n2)s1 [Example I-12] | ≤ 5 µM | ≤ 5 µM |  |
| CCOc1ccc(Nc2nccc(-c3ncc(C)s3)n2)cc1 [Example I-14] | ≤ 5 µM | ≤ 5 µM |  |
| Cc1cnc(-c2ccnc(Nc3cccc(C(N)=O)c3)n2)s1 [Example I-15] | ≤ 5 µM | ≤ 5 µM |  |
| COc1ccc(Nc2nccc(-c3ncc(C)s3)n2)cc1-c1ccccc1 [Example I-16] | ≤ 5 µM | ≤ 5 µM |  |
| COc1ccc(Nc2nccc(-c3ncc(C)s3)n2)cc1O [Example I-17] | ≤ 5 µM | ≤ 5 µM |  |
| Cc1cc2cc(Nc3nccc(-c4ncc(C)s4)n3)ccc2[nH]1 [Example I-18] | ≤ 5 µM | ≤ 5 µM |  |
| COc1cc(Nc2nccc(-c3ncc(C)s3)n2)ccc1-c1ccccc1 [Example I-19] | ≤ 5 µM | ≤ 5 µM |  |
| Cc1cnc(-c2ccnc(Nc3ccc4c(c3)CCN4S(C)(=O)=O)n2)s1 [Example I-20] | ≤ 5 µM | ≤ 5 µM |  |
| COCc1cc(=O)oc2cc(Nc3nccc(-c4ncc(C)s4)n3)ccc12 [Example I-22] | ≤ 5 µM | ≤ 5 µM |  |
| Cc1cnc(-c2ccnc(Nc3ccc(-n4cncn4)cc3)n2)s1 [Example I-23] | ≤ 5 µM | ≤ 5 µM |  |
| CCn1c2ccccc2c2cc(Nc3nccc(-c4ncc(C)s4)n3)ccc21 [Example I-26] | ≤ 5 µM | ≤ 5 µM |  |

| SMILES | Ki (ZAP-70) | Ki (SYK; [1]) | Ki (SYK) |
| --- | --- | --- | --- |
| COc1cccc(Nc2nccc(-c3ncc(C)s3)n2)c1 [Example I-27] | ≤ 5 µM | ≤ 5 µM |  |
| COc1ccc(Nc2nccc(-c3ncc(C)s3)n2)cc1 [Example I-28] | ≤ 5 µM | ≤ 5 µM |  |
| Cc1cnc(-c2ccnc(Nc3ccc(Cl)c(C)c3)n2)s1 [Example I-29] | ≤ 5 µM | ≤ 5 µM |  |
| CC(=O)c1cccc(Nc2nccc(-c3ncc(C)s3)n2)c1 [Example I-30] | ≤ 5 µM | ≤ 5 µM |  |
| Cc1cnc(-c2ccnc(Nc3ccc4[nH]ccc4c3)n2)s1 [Example I-31] | ≤ 5 µM | ≤ 5 µM |  |
| Cc1cnc(-c2ccnc(Nc3cccc(N)c3)n2)s1 [Example I-32] | ≤ 5 µM | ≤ 5 µM |  |
| CCOP(=O)(Cc1ccc(Nc2nccc(-c3ncc(C)s3)n2)cc1)OCC [Example I-33] |  |  | ≤ 5 µM |
| Cc1cnc(-c2ccnc(Nc3ccc4c(C)cc(=O)oc4c3)n2)s1 [Example I-34] | ≤ 5 µM | ≤ 5 µM |  |
| CC(=O)Nc1ccc(Nc2nccc(-c3ncc(C)s3)n2)cc1C [Example I-35] | ≤ 5 µM | ≤ 5 µM |  |
| Cc1cnc(-c2ccnc(Nc3ccc4c(c3)CC(=O)N4)n2)s1 [Example I-36] | ≤ 5 µM | ≤ 5 µM |  |
| Cc1cnc(-c2ccnc(Nc3cccc(OCc4ccccc4)c3)n2)s1 [Example I-37] | ≤ 5 µM | ≤ 5 µM |  |
| Cc1cnc(-c2ccnc(Nc3cccc(CC#N)c3)n2)s1 [Example I-38] | ≤ 5 µM | ≤ 5 µM |  |
| Cc1cc(C)cc(Nc2nccc(-c3ncc(C)s3)n2)c1 [Example I-41] | ≤ 5 µM |  | ≤ 5 µM |
| Cc1cc(C)cc(Nc2nccc(-c3nc(Br)cs3)n2)c1 [Example I-42] | ≤ 5 µM | ≤ 5 µM |  |
| Cc1cc(C)cc(Nc2nccc(-c3ncc(CO)s3)n2)c1 [Example I-43] | ≤ 5 µM |  | ≤ 5 µM |
| Cc1cc(C)cc(Nc2nccc(-c3ncc(CN(C)C)s3)n2)c1 [Example I-44] | ≤ 5 µM | ≤ 5 µM |  |
| CCN(CC)CCCNCc1cnc(-c2ccnc(Nc3cc(C)cc(C)c3)n2)s1 [Example I-45] | ≤ 5 µM | ≤ 5 µM |  |
| Cc1cc(C)cc(Nc2nccc(-c3ncc(CN4CCCCC4)s3)n2)c1 [Example I-46] | ≤ 5 µM | ≤ 5 µM |  |
| CCN1CCN(Cc2cnc(-c3ccnc(Nc4cc(C)cc(C)c4)n3)s2)CC1 [Example I-47] | ≤ 5 µM | ≤ 5 µM |  |
| Cc1cc(C)cc(Nc2nccc(-c3ncc(CN4CCOCC4)s3)n2)c1 [Example I-48] | ≤ 5 µM | ≤ 5 µM |  |

| SMILES | Ki (ZAP-70) | Ki (SYK; [1]) | Ki (SYK) |
| --- | --- | --- | --- |
| Cc1cnc(-c2ccnc(Nc3ccccc3)n2)s1 [Example I-49] | ≤ 5 µM | ≤ 5 µM |  |
| Cc1cnc(-c2ccnc(Nc3ccc4c(c3)CCC4)n2)s1 [Example I-50] | ≤ 5 µM | ≤ 5 µM |  |
| Cc1cnc(-c2ccnc(Nc3cc(Cl)cc(Cl)c3)n2)s1 [Example I-51] | ≤ 5 µM | ≤ 5 µM |  |
| Cc1cc(C)cc(Nc2nccc(-c3nc(CN4CCC(O)C4)cs3)n2)c1 (centres unmarked) [Example I-58] |  | ≤ 5 µM |  |
| Cc1cc(C)cc(Nc2nccc(-c3nc4ccccc4s3)n2)c1 [Example I-63] | ≤ 5 µM | ≤ 5 µM |  |
| Cc1cc(C)cc(Nc2nccc(-c3nc(CBr)cs3)n2)c1 [Example I-64] | ≤ 5 µM | ≤ 5 µM |  |
| COCc1csc(-c2ccnc(Nc3cc(C)cc(C)c3)n2)n1 [Example I-66] | ≤ 5 µM | ≤ 5 µM |  |
| Cc1cc(C)cc(Nc2nccc(-c3nc(CNCC(=O)OC(C)(C)C)cs3)n2)c1 [Example I-67] |  | ≤ 5 µM |  |
| Cc1cc(C)cc(Nc2nccc(-c3nc(C)c(C)s3)n2)c1 [Example I-70] | ≤ 5 µM | ≤ 5 µM |  |
| Cc1cc(C)cc(Nc2nccc(-c3ncc(Br)s3)n2)c1 [Example I-71] | ≤ 5 µM | ≤ 5 µM |  |
| CC(=O)OCc1cnc(-c2ccnc(Nc3cc(C)cc(C)c3)n2)s1 [Example I-72] | ≤ 5 µM | ≤ 5 µM |  |
| OCc1csc(-c2ccnc(Nc3cccc(OCc4ccccc4)c3)n2)n1 [Example I-73] | ≤ 5 µM | ≤ 5 µM |  |
| Cc1cc(C)cc(Nc2nccc(-c3ncc(N4CCCCC4)s3)n2)c1 [Example I-74] | ≤ 5 µM | ≤ 5 µM |  |
| CCc1cnc(-c2ccnc(Nc3cc(C)cc(C)c3)n2)s1 [Example I-75] | ≤ 5 µM | ≤ 5 µM |  |
| Cc1cc(C)cc(Nc2nccc(-c3nc(CN)cs3)n2)c1 [Example I-76] | ≤ 5 µM | ≤ 5 µM |  |
| Cc1cnc(-c2ccnc(Nc3ccc4c(c3)C(=O)OC4)n2)s1 [Example I-126] |  | ≤ 5 µM |  |
| Cc1cc(Nc2nccc(-c3ncc(C)s3)n2)[nH]n1 [Example I-151] |  | ≤ 5 µM |  |
| CC(=O)Nc1ccc(Nc2nccc(-c3ncc(C)s3)n2)cc1 [Example I-157] |  | ≤ 5 µM |  |
